Data taken from patent US5223169A, “Hydrolase surfactant systems and their use in laundering” (priority 1991, dated 1993).

Experiments:
Assay in all cases: pH-stat assay of triglyceride emulsion hydrolysis; critical oil-to-surfactant ratio
[1] = test system: enzyme from P. putida ATCC 53552 (lipase GC-1065); type: biochemical, Pseudomonas putida; details: for Specific Activity determined from initial rates, GC-1065, High / Critical Ratio, GC-1065, High / Critical Ratio, GC-1065, Low / Specific Activity determined from initial rates, GC-1065, Low: trioctanoin emulsions; for Specific Activity determined from initial rates, GC-1065, High: high surfactant conc. as E41; for Critical Ratio, GC-1065, High / Critical Ratio, GC-1065, Low: lipase ~2 ppm; for Critical Ratio, GC-1065, High: high surfactant conc.: SDS 10 mM, Neodol 25-3S 10 mM, Surfonic JL-80X 5 mM, Triton X-100 10 mM, C16 DAPS 10 mM; for Critical Ratio, GC-1065, Low: low surfactant conc.: SDS 2 mM, Triton X-100 2 mM, C16 DAPS 0.5 mM; for Specific Activity determined from initial rates, GC-1065, Low: low surfactant conc. as E40; for Enzyme Activity (initial rate of hydrolysis): enzyme 2 ppm
Source text: (§1) To determine the critical ratio for any specific enzyme-surfactant combination, aliquots of an aqueous solution, each containing a determined (constant) amount of the enzyme which is effective in the absence of any surfactant to hydrolyze the triglycerides in an oily stain on a determined (constant) amount of a fabric soiled by a determined (constant) amount of a triglyceride oil, are mixed with a determined (constant) amount of a surfactant which is within the range of the amounts conventionally present in home laundry solutions, e.g., from about 0.2 to 1.5. mM, and which is effective to inhibit the hydrolyzing activity of the enzyme. To the aliquots are added a hydrolysis activator, e.g., trioctanoin, in increasing amounts and the hydrolyzing activity of the enzyme in the various solutions is determined.
(§2) The experiments determining enzyme activity, such as those set out in Tables IA and IB, were carried out as follows:
(§3) The desired amount of triglyceride was weighed into an appropriate size beaker, on a Mettler balance (model number AE163). The corresponding amount of surfactant was added to the triglyceride, from a previously prepared aqueous surfactant stock solution, and the triglyceride and surfactant mixed manually. The sample was then adjusted to the desired weight using doubly distilled H2 O. Emulsification of the sample was carried out, prior to assaying enzyme activity, with a probe sonicator (Braun-Sonic model 2000), on ice, for approx. 2 minutes.
(§4) (ii) Enzyme Activity Measurement:
(§5) This was achieved by monitoring the rate of acid liberation, from the enzymatic hydrolysis of the triglycerides in the emulsion. The assay was initiated by adding approx. 2 ppm lipase to 10 ml of the prepared emulsion. The acid liberated was monitored by autotitration, on a Radiometer pH-stat (model number ABU80) to an endpoint of a pH of 10. Initial rates were recorded for the first 5 minutes of the reaction, and the reaction rates reported as μmole H^+ titrated . min ^-1 mgE^-1. Occasionally enzyme activity is reported as % total oil hydrolyzed in 14 min. In these examples, the reaction was allowed to run for 14 min. and the amount of acid titrated recorded. The % total oil (triglyceride) hydrolyzed was then calculated by dividing the recorded value with the theoretically calculated value assuming three equivalents of oleic acid was produced for each triglyceride equivalent. All assays were run at ambient temperatures.

Enzyme Amano P = biological target: T1, Enzyme Amano P (Burkholderia cepacia, UniProt P22088); type: biochemical, P. fluorescens
T1 construct: purchased Amano Co
T1 sequence (P22088 45-364): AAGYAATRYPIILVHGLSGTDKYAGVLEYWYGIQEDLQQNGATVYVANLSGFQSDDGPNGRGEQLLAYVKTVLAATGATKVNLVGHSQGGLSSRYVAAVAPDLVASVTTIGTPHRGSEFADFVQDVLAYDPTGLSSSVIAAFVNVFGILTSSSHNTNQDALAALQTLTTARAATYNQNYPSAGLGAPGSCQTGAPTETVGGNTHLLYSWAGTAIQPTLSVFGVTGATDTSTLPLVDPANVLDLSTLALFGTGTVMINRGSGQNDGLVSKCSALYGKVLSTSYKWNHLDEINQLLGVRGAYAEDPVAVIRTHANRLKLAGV
Source text: as §1, §2, §3, §4, §5

Enzyme Amano 68S = type: biochemical, P. sp.; details: for Critical Ratio / Enzyme Activity: surfactant conc.: SDS 1 mM
Source text: as §1, §2, §3, §4, §5

[2] = Table II, trioctanoin, surfactant conc.: SDS 2 mM, C12 LAS 1 mM, Neodol 25-3S 2 mM, Neodol 25-9 0.5 mM, Surfonic JL80X 0.5 mM, Triton X100 2 mM
[3] = Table Summary, second block of lines (corresponds to triolein Tables VI-IX)
[4] = Table VI, triolein, surfactant conc.: SDS 1 mM, C12 LAS 0.5 mM, Neodol 25-3S 1 mM, Neodol 25-9 0.5 mM, Surfonic JL80X 0.5 mM
[5] = C12 LAS 1 mM, Neodol 25-9 0.5 mM, Neodol 25-3S 2 mM, Surfonic JL-80X 0.5 mM
[6] = triolein emulsions, high conc.: SDS 10 mM, C12 LAS 5 mM, Neodol 25-9 5 mM, Neodol 25-3S 5 mM, Surfonic JL-80X 2.5 mM
[7] = Table III, trioctanoin, surfactant conc.: SDS 2 mM, C12 LAS 1 mM, Neodol 25-3S 2 mM, Neodol 25-9 0.5 mM, Surfonic JL80X 0.5 mM
[8] = Table VII, triolein, surfactant conc.: SDS 1 mM, others 0.5 mM
[9] = Table IV, trioctanoin, C12 LAS 0.2 mM, Neodol 25-3S 0.5 mM, Neodol 25-9 0.5 mM, Surfonic JL80X 0.5 mM
[10] = Table VIII, triolein, C12 LAS 0.5 mM, Neodol 25-3S 0.5 mM, Neodol 25-9 0.5 mM, Surfonic JL80X 2.5 mM

CCCCCCCCCCCCOS(=O)(=O)[O-].[Na+] [SDS, sodium dodecylsulfate]
Critical Ratio [1, 2]: 0.5-5.0
Enzyme Activity [1, 2]: 325 μmole H^+ released min^-1 mgE^
critical ratio class, enzyme From ATCC 53552 [1, 3]: 0 (means a critical ratio of 1.0-10)
Critical Ratio [1, 4]: 5-10
Enzyme Activity [1, 4]: 60 μmole H^+ released min^-1 mgE^
Specific Activity determined from initial rates, GC-1065, High [1]: 450 μeq acid/min.mg
Critical Ratio, GC-1065, High ([1]; C12 LAS 5 mM, Neodol 25-9 5 mM): 1-3
Critical Ratio, GC-1065, Low [1, 5]: 0.5-5.0
Specific Activity determined from initial rates, GC-1065, Low [1]: 325 μeq acid/min.mg
Activity (specific hydrolysis activity from initial rates), GC-1065, High ([1]; triolein emulsions, high conc. as E55): 50 μeq acid/min./mg
R, critical (minimum activating molar) ratio, GC-1065, High [1, 6]: 1-5
Activity (specific hydrolysis activity from initial rates), GC-1065, Low ([1]; triolein emulsions, low conc. as E54): 60 μeq acid/min./mg
R, critical (minimum activating molar) ratio, GC-1065, Low ([1]; triolein emulsions, low conc.: SDS 1 mM, C12 LAS 0.5 mM, Neodol 25-9 0.5 mM, Neodol 25-3S 1 mM, Surfonic JL-80X 0.5 mM): 5-10
Critical Ratio (Enzyme Amano P; [7]): 1-5
Enzyme Activity (Enzyme Amano P; [7]): 100 μmole H^+ released min^-1 mgE^
critical ratio class, Amano P (Enzyme Amano P; [3]): 0 (means a critical ratio of 1.0-10)
Critical Ratio (Enzyme Amano P; [8]): 5-10
Enzyme Activity (Enzyme Amano P; [8]): 160 μmole H^+ released min^-1 mgE^
Specific Activity determined from initial rates, AMANO P, High (Enzyme Amano P; trioctanoin emulsions, high surfactant conc. as E43): 200 μeq acid/min.mg
Critical Ratio, AMANO P, High (Enzyme Amano P; trioctanoin emulsions, lipase ~2 ppm, high conc.: SDS 10 mM, C12 LAS 5 mM, Neodol 25-9 5 mM, Neodol 25-3S 20 mM, Surfonic JL-80X 5 mM): 5-10
Critical Ratio, AMANO P, Low (Enzyme Amano P; trioctanoin emulsions, lipase ~2 ppm, low conc.: SDS 2 mM, C12 LAS 1 mM, Neodol 25-9 0.5 mM, Neodol 25-3S 2.0 mM, Surfonic JL-80X 0.5 mM): 1-5
Specific Activity determined from initial rates, AMANO P, Low (Enzyme Amano P; trioctanoin emulsions, low surfactant conc. as E42): 100 μeq acid/min.mg
Activity (specific hydrolysis activity from initial rates), AMANO P, High (Enzyme Amano P; triolein emulsions, high conc. as E57): 150 μeq acid/min./mg
R, critical (minimum activating molar) ratio, AMANO P, High (Enzyme Amano P; [6]): 5-10
Activity (specific hydrolysis activity from initial rates), AMANO P, Low (Enzyme Amano P; triolein emulsions, low conc. as E56): 160 μeq acid/min./mg
R, critical (minimum activating molar) ratio, AMANO P, Low (Enzyme Amano P; triolein emulsions, low conc.: SDS 1 mM, others 0.5 mM): 5-10
Critical Ratio (Enzyme Amano 68S; [9]): 0.1-0.5
Enzyme Activity (Enzyme Amano 68S; [9]): 400 μmole H^+ released min^-1 mgE^
critical ratio class, Amano 68S (Enzyme Amano 68S; [3]): 0 (means a critical ratio of 1.0-10)
Critical Ratio (Enzyme Amano 68S; [10]): 1-5
Enzyme Activity (Enzyme Amano 68S; [10]): 200 μmole H^+ released min^-1 mgE^
Specific Activity determined from initial rates, AMANO 68S, High (Enzyme Amano 68S; trioctanoin emulsions, high surfactant conc. as E45): 1200 μeq acid/min.mg
Critical Ratio, AMANO 68S, High (Enzyme Amano 68S; trioctanoin emulsions, lipase ~2 ppm, high conc.: SDS 10 mM, C12 LAS 2 mM, Neodol 25-9 5 mM, Neodol 25-3S 10 mM, Surfonic JL-80X 5 mM): 10-15
Critical Ratio, AMANO 68S, Low (Enzyme Amano 68S; trioctanoin emulsions, lipase ~2 ppm, low conc.: SDS 1 mM, C12 LAS 0.2 mM, Neodol 25-9 0.5 mM, Neodol 25-3S 0.5 mM, Surfonic JL-80X 0.5 mM): 0.1-0.5
Specific Activity determined from initial rates, AMANO 68S, Low (Enzyme Amano 68S; trioctanoin emulsions, low surfactant conc. as E44): 400 μeq acid/min.mg
Activity (specific hydrolysis activity from initial rates), AMANO 68S, High (Enzyme Amano 68S; triolein emulsions, high conc. as E59): 175 μeq acid/min./mg
R, critical (minimum activating molar) ratio, AMANO 68S, High (Enzyme Amano 68S; triolein emulsions, high conc.: SDS 10 mM, C12 LAS 5 mM, Neodol 25-9 5 mM, Neodol 25-3S 5 mM, Surfonic JL-80X 2.5 mm): 5-10
Activity (specific hydrolysis activity from initial rates), AMANO 68S, Low (Enzyme Amano 68S; triolein emulsions, low conc. as E58): 200 μeq acid/min./mg
R, critical (minimum activating molar) ratio, AMANO 68S, Low (Enzyme Amano 68S; triolein emulsions, low conc.: SDS 1 mM, C12 LAS 0.5 mM, Neodol 25-9 0.5 mM, Neodol 25-3S 0.5 mM, Surfonic JL-80X 2.5 mM): 1-5

CCCCCCCC/C=C\CCCCCCCC(=O)[O-].[Na+] [Na Oleate, sodium oleate]
Enzyme Activity ([1]; triolein substrate, surfactant 0.3 mM, system ratio 1): 0 μmole H^+ titrated . min ^-1 m
Enzyme Activity ([1]; triolein substrate, surfactant 0.3 mM, system ratio 5): 0 μmole H^+ titrated . min ^-1 m
Enzyme Activity ([1]; triolein substrate, surfactant 0.3 mM, system ratio 10): 0 μmole H^+ titrated . min ^-1 m
Enzyme Activity ([1]; triolein substrate, surfactant 0.3 mM, system ratio 20): 60 μmole H^+ titrated . min ^-1 m
Enzyme Activity ([1]; triolein substrate, surfactant 0.3 mM, system ratio 30): 90 μmole H^+ titrated . min ^-1 m

CCCCCCCCCCCCCCCC [Hexadecane, hexadecane]
Enzyme Activity ([1]; triolein 0.3 mM + hexadecane 1.2 mM, Surfonic JL-80X 0.3 mM, system ratio 5): 8 μmole H^+ released min^-1 mgE^
Enzyme Activity ([1]; triolein 0.3 mM + hexadecane 1.2 mM, Surfonic JL-80X 0.3 mM, system ratio 5, listed as hexadecane): active
Enzyme Activity (Enzyme Amano P; trioctanoin 5 mm + hexadecane 10 mm, Neodol 25-3S 0.5, system ratio 40): 45 μmole H^+ released min^-1 mgE^

CCCCCCCCCCCCCCCC[N+](C)(C)CCCS(=O)(=O)[O-] [C16 DAPS]
Enzyme Activity (initial rate of hydrolysis) ([1]; trioctanoin 0.5 mM, surfactant 0.5 mM, system ratio 1): 0 μmole H^+ released min^-1 mgE^
Enzyme Activity (initial rate of hydrolysis) ([1]; trioctanoin 2.5 mM, surfactant 0.5 mM, system ratio 5): 0 μmole H^+ released min^-1 mgE^
Enzyme Activity (initial rate of hydrolysis) ([1]; trioctanoin 5 mM, surfactant 0.5 mM, system ratio 10): 0 μmole H^+ released min^-1 mgE^
Enzyme Activity (initial rate of hydrolysis) ([1]; trioctanoin 10 mM, surfactant 0.5 mM, system ratio 20): 334 μmole H^+ released min^-1 mgE^
Enzyme Activity (initial rate of hydrolysis) ([1]; trioctanoin 10 mM, surfactant 10 mM, system ratio 1): 0 μmole H^+ released min^-1 mgE^
Enzyme Activity (initial rate of hydrolysis) ([1]; trioctanoin 15 mM, surfactant 0.5 mM, system ratio 30): 405 μmole H^+ released min^-1 mgE^
Enzyme Activity (initial rate of hydrolysis) ([1]; trioctanoin 20 mM, surfactant 0.5 mM, system ratio 40): 370 μmole H^+ released min^-1 mgE^
Enzyme Activity (initial rate of hydrolysis) ([1]; trioctanoin 50 mM, surfactant 10 mM, system ratio 5): 0 μmole H^+ released min^-1 mgE^
Enzyme Activity (initial rate of hydrolysis) ([1]; trioctanoin 200 mM, surfactant 10 mM, system ratio 20): 398 μmole H^+ released min^-1 mgE^
Enzyme Activity (initial rate of hydrolysis) ([1]; trioctanoin 300 mM, surfactant 10 mM, system ratio 30): 370 μmole H^+ released min^-1 mgE^
Enzyme Activity (initial rate of hydrolysis) ([1]; trioctanoin 400 mM, surfactant 10 mM, system ratio 40): 417 μmole H^+ released min^-1 mgE^
critical ratio (system ratio of oil to surfactant at which enzymatic activity begins) ([1]; trioctanoin as oil, surfactant 0.5 and 10 mM (Table IA)): 10-20
Specific Activity determined from initial rates, GC-1065, High [1]: 450 μeq acid/min.mg
Critical Ratio, GC-1065, High ([1]; C12 LAS 5 mM, Neodol 25-9 5 mM): 10-20
Critical Ratio, GC-1065, Low [1, 5]: 10-20
Specific Activity determined from initial rates, GC-1065, Low [1]: 450 μeq acid/min.mg

CCCCCCCCCCCC(=O)N(CC)CC [N,N-diethyldodecanamide]
Enzyme Activity ([1]; no trioctanoin, N,N-diethyldodecanamide 10.0 mm, Neodol 25-9 0.5 mm): < 5 μeq of fatty acid produced in 14 minutes
Enzyme Activity ([1]; trioctanoin 2.5 mm, N,N-diethyldodecanamide 2.5 mm, Neodol 25-9 0.5 mm): 5 μeq of fatty acid produced in 14 minutes
Enzyme Activity ([1]; trioctanoin 2.5 mm, N,N-diethyldodecanamide 5.0 mm, Neodol 25-9 0.5 mm): 12 μeq of fatty acid produced in 14 minutes
Enzyme Activity ([1]; trioctanoin 2.5 mm, N,N-diethyldodecanamide 7.5 mm, Neodol 25-9 0.5 mm): 19 μeq of fatty acid produced in 14 minutes

Triton X-100
Critical Ratio [1, 2]: 10-15
Enzyme Activity [1, 2]: 450 μmole H^+ released min^-1 mgE^
Specific Activity determined from initial rates, GC-1065, High [1]: 400 μeq acid/min.mg
Critical Ratio, GC-1065, High ([1]; C12 LAS 5 mM, Neodol 25-9 5 mM): 15-20
Critical Ratio, GC-1065, Low [1, 5]: 10-15
Specific Activity determined from initial rates, GC-1065, Low [1]: 450 μeq acid/min.mg
